According to patent publication US12102685B2, “Immodulator peptides covalently modified with small molecules” (priority 2020, dated 2024):
Marks after values point to notes of the source that are not given here. Peptide text beside a SMILES is read from it.

Assays:
[1] = Alexa488-SA-labelled IM1-IM6 binding to metal-charged NTA-coated plate (x2B d); conditions: no peptide background = 1.0
Procedure: NTA-metal-affinity fluorescence assay was performed using 96-well NTA-metal-coated plates readily available from commercial sources such as Qiagen (Germantown, MD). NTA was charged with ferrous or ferric iron, zinc, copper, calcium, vanadium, ruthenium, cobalt, titanium, manganese or other metals. 400 ng of FITC-labeled immodulator peptide (or biotinylated immodulator peptide complexed to Alexa-488-labeled streptavidin) in PBS buffer was added per plate. After incubation at room temperature for 60 minutes, excess peptide was washed off and peptide was detected by measuring fluorescence (excitation 490 nm, emmission 525 nm) in a fluorometer. • (a) Using FITC-labeled IM3 peptide (1 ug/well) in the fluorescent binding assay: • EDTA-treated control: 2,251±1,186 • Ferrous iron: 170,441±11,264 (p<0.001)* • Copper: 13,644±5566 (p<0.05)* • Calcium: 48,822±11,990 (p<0.01)* • *p values are relative to EDTA-treated control • (b) Competition binding assay to ferrous iron, calcium, copper and zinc-charged NTA-coated plates using FITC-labeled IM3 peptide (0.5 uM) and 8× (4 uM) unlabelled competitor peptides IM3N1, IM3N2 (*all comparisons to PBS control are p<0.01); # fluorescent value of binding to […] was set at 100.
Ferrous iron # (100±2.6*); Control (no metal): 6.4±3.1; Ferric iron: 94.1±6.6*; Calcium: 47.6±3.7*; Vanadium: 53.9±5.5*; Manganese: 54.4±11.2*; Cobalt: 25.4±2.3*; Copper: 58.4±6.4*; Zinc: 71.4±8.3*; Ruthenium: 67.8±8.3*; (d) Alexa488-SA-labelled immodulator peptide IM1, IM2, IM3, IM4, IM5, IM6 (400 ng/well) were bound to NTA-coated plate charged with the indicated metals: # background (no peptide) control set to 1.0;*p<0.05, **p<0.01 vs “no peptide”

[2] = Binding to Echelon PPI Arrays (x9B); parameters: key: 0=no binding; 1=low binding; 2=medium binding; 3=high binding; conditions: 100 pmol PPI spot, colorimetric readout
Excerpt: Binding of immodulator peptides to Echelon PPI Arrays. PPI arrays were purchased from Echelon Biosciences (Sal Lake City, UT) and used according to the manufacturer's recommendations. Colorimetric readout from each 100 pmol PPI spot in the array is expressed as 0=no binding, 1=low binding, 2=medium binding and 3=high binding. […] In addition, IM3 and IM5 show slight binding to PI(3,4,5)P3.

[3] = Binding to heparin-agarose spin column (x3D); conditions: 1 ug SA488-labelled peptide
Procedure: 1 ug Streptavidin-Alexa 488 conjugate (SA488)-labelled IM peptide in PBS buffer was loaded on a spin column packed with 0.2 ml bed volume heparin-agarose (G-Biosciences, St. Louis, MO). The column was centrifuged for 2 min at 2,000 G and the flow-through was collected. The column was then washed with 0.3 ml 1% BSA in PBS buffer and the column spin repeated. Flowthrough and wash were pooled and duplicate 20 uL aliquots counted in a standard fluorometer (excitation/emission 485/525 nm). Results are expressed as percentage of input counts that bound the heparin-agarose column, versus flowthrough. Percent counts bound to heparin-agarose resin are shown below. IM3, IM5 and IM6 peptides bind heparin-agarose in this assay.

[4] = Iron binding of separately labeled peptides (x2E e); conditions: each peptide labeled separately; IM3 = 100; ferric iron
Procedure: (§1) Experiments were conducted by the procedure described above. Ferric iron-charged NTA-coated 96-well plates were used as described. 1 ug/well immodulator peptide complexed to Alexa-488-labeled streptavidin in PBS buffer was added (60 min at room temperature). The plate was washed and counted in a standard fluorometer (excitation/emission: 485/525 nm). The results (fluorescence) show improved iron-binding by the three peptides extended C-terminally by the AVD, (dA)VD, and FVS tripeptides. **p<0.01 vs IM3 control IM3: 200±29; IM4: 45±37**; IM5: 130±77; IM3AVD: 434±29**; IM3dAVD: 418±28**; IM3FVS: 371±33** • (c) Competition assay. The same procedure was used as the preceding experiment, except that 375 ng/well labeled IM3 peptide was used, plus 10× of the indicated unlabeled peptide. ‘No competing peptide’ control value was set to 100. *p<0.05 vs “no peptide” control Competing Peptide/Fluorescence • None: 100±38; IM4: 125±26; IM3: 63±27*; IM5: 40±14*; IM3AVD: 10±28* • (d) Competition assay. The same procedure was used as the preceding experiment, except that labeled IM3AVD peptide was used. **p<0.01 vs “no competing peptide” control • None: 100±9; IM4: 144±44; IM3: 35±16**; IM5: 30±19**; IM3AVD: 9±19** • (e) The same procedure was used as the preceding experiment, except that each peptide was labeled with Alexa-488-labeled streptavidin in PBS buffer and used separately. Binding to IM3 was set to =100. *p<0.05, **p<0.01 vs IM3 control. (Labeled Peptide/Fluorescence) IM1: 1.8±0.4**; IM2: 3.0±1.8**; IM3: 100.0±16.8; IM4: 7.2±1.7*; IM5: 86.7±6.4; IM6: 85.9±14.9; IM3AVD:137.7±11.8*; IM3dAVD:147.4±22.9*; IM3FVS: 101.5±10.5.

[5] = biological target: T1, AA111-228 DNA-binding domain of RXR-alpha (RXRa-DBD) (Homo sapiens, UniProt P19793); test: Binding to RXRa-DBD (x3A); conditions: 1 ug/well RXRa-DBD, 800 ng/well SA488-labelled peptide; background subtracted
T1 construct: purchased Abcam, Cambridge, MA
T1 sequence (P19793 111-228): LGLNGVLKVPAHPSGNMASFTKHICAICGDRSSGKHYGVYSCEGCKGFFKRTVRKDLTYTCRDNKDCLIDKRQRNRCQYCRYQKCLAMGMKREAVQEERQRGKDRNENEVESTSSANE
Procedure: Binding of immodulator peptides to AA111-228 DNA-binding domain of RXR-alpha (RXRa-DBD). 1 ug/well recombinant RXRa-DBD (Abcam, Cambridge, MA) was adsorbed to wells of a 96-well plate for 60 minutes at RT, then blocked with 200 uL 1% BSA in PBS buffer overnight. Plate was washed and 800 ng/well Streptavidin-Alexa 488 conjugate (SA488)-labelled IM peptide was added. The plate was incubated for 60 min at room temperature, washed and counted in a standard fluorometer (excitation/emission 485/525 nm). Background (buffer alone) was subtracted.

[6] = tested on: COL1 in HFF-1 dermal fibroblasts; test: Collagen-1 ELISA in HFF-1 dermal fibroblasts (x11A); type: cell-based; conditions: peptide 2 uM, 72 hour; control (buffer) = 100
Procedure: (§2) Immune modulation functions of immodulator peptides have potential untility in the field of cosmetics. HFF-1 cell line was obtained from American Type Culture Collection (ATCC). Cells were grown in a T-75 flask in DMEM Medium containing 10% fetal bovine serum and penicillin-streptomycin at 37° C. in a humidified, 5% CO2 incubator. Cells ([…], 2,000 cells/well) were plated in a 96-well plate and incubated overnight at 37° C. in a humidified, 5% CO2 incubator. Next day, […] of compounds were added (quadruplicate wells). After 72 hour incubation with the compound, supernatants were collected for Collagen-1 ELISA assay and cell viability was measured in a luminometer after the addition of […] CellTiterGlo reagent (Promega Inc, Madison, WI) as recommended by the manufacturer.
Collagen stimulating activity of immodulator peptides in HFF-1 dermal fibroblasts. Peptides were added to cells at 2 uM. COL1 immunoreactivity was measured in the supernatants of cultured cells by ELISA using a rabbit monoclonal anti-COL1 primary antibody (Abcam, Cambridge, MA). Control (buffer) value of immunoreactivity was set to 100.

[7] = Iron-binding competition assay with labeled IM3AVD (x2E d); conditions: labeled IM3AVD plus 10x unlabeled peptide; no competing peptide = 100
Procedure: as §1

[8] = Iron-binding competition assay with labeled IM3 (x2E c); conditions: 375 ng/well labeled IM3 plus 10x unlabeled peptide; no competing peptide = 100
Procedure: as §1

[9] = Strength of binding to iron, plate assay (x2E b); conditions: 1 ug/well peptide complexed to Alexa-488-streptavidin; ferric iron
Procedure: Immodulator peptides were extended C-terminally by three amino acids, to include a valine residue that is highly conserved in the “thyroglobulin type 1 motif”. The reasoning behind this attempt is that a longer conserved sequence might lead to a tighter fold overall, which might in turn result in increased metal-binding avidity. • (b) Strength of binding to iron was evaluated by plate assay.
as §1

A375 cells = test: A375 cell viability, CellTiterGlo (x10A); type: cell-based; conditions: 72 hours
Procedure: as §2, with “have great” for “have”, “of cancer. A375” for “of cosmetics. HFF-1”, “(ATCC). They” for “(ATCC). Cells”, “compound,” for “compound, supernatants were collected for Collagen-1 ELISA assay and”
Experiment x10A. Anti-cancer activity of immodulator peptides on A375 cells. A 96-well plate was seeded with 2,000 A375 cells per well in DMEM medium containing 10% FBS and PenStrep. After 24 hrs at 37 deg C., compounds and peptides were added (each treatment done in quadruplicate). After a further 72 hours incubation, 100 uL/well of CTG assay reagent purchased from Promega Inc. (Madison, WI) was added. Plate was read after 10 minutes, as recommended by the manufacturer. Peptides were added at 2 uM. The results of this experiment are shown below, expressed as percent survival ofA375 cells.

SMILES | fluorescence ([1]; Calcium) | fluorescence ([1]; Copper) | fluorescence ([1]; Ferrous iron, 400 ng/well) | fluorescence ([1]; Zinc) | binding to PI spot [2] | binding to PI(3,4,5)P3 spot [2] | binding to PI(4)P1 spot [2] | binding to PI(4,5)P2 spot [2] | Percent Flowthrough [3] [%] | Percent retained [3] [%] | fluorescence of labeled peptide [4] | fluorescence [5] | COL1 immunoreactivity in supernatant [6] | fluorescence of labeled IM3AVD with competing peptide [7] | fluorescence of labeled IM3 with competing peptide [8] | fluorescence (iron binding) [9] | percent survival of A375 cells (A375 cells; peptide 2 uM + Kin1400 4 uM (RIG-I agonist)) | percent survival of A375 cells (A375 cells; peptide 2 uM, Buffer) [%]
N=C(N)NCCC[C@H](NC(=O)[C@H](CCCNC(=N)N)NC(=O)[C@H](CCC(N)=O)NC(=O)CNC(=O)[C@H](CCC(N)=O)NC(=O)[C@H](CO)NC(=O)[C@H](CO)NC(=O)[C@H](CCCNC(=N)N)NC(=O)[C@H](CS)NC(=O)[C@H](CCC(N)=O)NC(=O)[C@H](CCCNC(=N)N)NC(=O)[C@H](CCCCN)NC(=O)[C@H](CCCNC(=N)N)NC(=O)[C@H](Cc1ccc(O)cc1)NC(=O)[C@H](Cc1ccccc1)NC(=O)CNC(=O)[C@H](CCCNC(=N)N)NC(=O)[C@@H](N)Cc1c[nH]cn1)C(=O)NCC(=O)N1CCC[C@H]1C(=O)N[C@@H](CS)C(=O)N[C@@H](Cc1c[nH]c2ccccc12)C(=O)O [IM6] (H-HRGFYRKRQCRSSQGQRRGPCW-OH; N-terminus and C-terminus assumed) | 15.1 ± 1.9** | 2.4 ± 2.4** | 20.6 ± 0.8** | 8.4 ± 0.4** | 0 | 0 | 0 | 1 | 2.0 | 98.0 | 85.9±14.9 | 587±192 | 112 |  |  |  |  | 
CC(C)[C@H](NC(=O)[C@H](C)NC(=O)[C@H](Cc1c[nH]c2ccccc12)NC(=O)[C@H](CS)NC(=O)[C@H](Cc1ccccc1)NC(=O)CNC(=O)[C@H](CCCNC(=N)N)NC(=O)[C@H](CCCCN)NC(=O)[C@H](CCCNC(=N)N)NC(=O)CNC(=O)[C@H](CCCCN)NC(=O)[C@H](CO)NC(=O)[C@@H]1CCCN1C(=O)[C@H](CCCNC(=N)N)NC(=O)[C@H](CS)NC(=O)[C@H](CCC(N)=O)NC(=O)[C@H](CCCCN)NC(=O)[C@H](CCCCN)NC(=O)[C@H](CCCCN)NC(=O)[C@H](Cc1ccc(O)cc1)NC(=O)[C@H](Cc1ccccc1)NC(=O)CNC(=O)[C@H](CCCCN)NC(=O)[C@@H](N)CCCCN)C(=O)N[C@@H](CC(=O)O)C(=O)O [IM3AVD] (H-KKGFYKKKQCRPSKGRKRGFCWAVD-OH; N-terminus and C-terminus assumed) |  |  |  |  |  |  |  |  |  |  | 137.7±11.8 |  |  | 9±19 | 10±28 | 434±29 | 12.5** percent | 96.0
